The source of these data is patent US20010036944A1, “Certain benzothiazine dioxide endothelin antagonists and processes for their preparation” (priority 1997, published 2001).

Structures can show the parent of a compound that is named as a salt.

Data set [1] addresses T1, recombinant human ETAR (HETA) (Homo sapiens, UniProt P25101).
T1 construct: expressed in transfected cells; host or cells: Ltk- cells (membrane preparation)
T1 sequence (P25101 21-427): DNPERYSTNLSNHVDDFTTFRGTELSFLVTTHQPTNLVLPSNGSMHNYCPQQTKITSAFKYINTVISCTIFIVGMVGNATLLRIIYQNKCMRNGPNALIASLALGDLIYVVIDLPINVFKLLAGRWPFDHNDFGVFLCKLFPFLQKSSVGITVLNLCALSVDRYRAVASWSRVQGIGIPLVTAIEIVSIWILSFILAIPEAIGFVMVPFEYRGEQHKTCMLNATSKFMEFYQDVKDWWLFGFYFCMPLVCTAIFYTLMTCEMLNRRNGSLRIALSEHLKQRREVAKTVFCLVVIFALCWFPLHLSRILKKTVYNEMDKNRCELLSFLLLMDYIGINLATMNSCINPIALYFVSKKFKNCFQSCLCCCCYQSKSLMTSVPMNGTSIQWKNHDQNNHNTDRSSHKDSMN
Nature of the data set: Radioligand binding, [125I]ET-1 to membranes of Ltk- cells expressing recombinant human ETAR (HETA). As to conditions: read-out: IC50 of ET-1 binding to human ETA receptors. On the procedure:
(§1) The following cultured cells were used in binding experiments: Ltk-cells expressing recombinant human ETAR (HETA), and CHOKI cells expressing recombinant human ETBR (HETB).
(§2) Membranes were prepared from cultured cells by lysing cells in cold lysis buffer (5 mM HEPES, 2 mM EDTA, pH 7.4) and homogenizing with a Dounce “A” homogenizer. The homogenate was centrifuged at 30,000×g for 20 minutes at […]. Membrane pellets were suspended in cold buffer containing 20 mM Tris, 2 mM EDTA, 200 μM Pefabloc, 10 μM phosphoramidon, 10 μM leupeptin, 1 μM pepstatin at pH 7.4 and frozen at […] until use. Membranes were thawed and homogenized with a Brinkmann Polytron then diluted in tissue buffer containing 20 mM Tris, 2 mM EDTA, 200 μM Pefabloc, and 100 μM bacitracin (pH 7.4). Radioligand and competing ligands were prepared in binding buffer containing 20 mM Tris, 2 mM EDTA, and 0.1% BSA.
(§3) The assay was terminated by filtration over Whatman GF/B filters which were presoaked with 50 mM Tris, pH 7.4 containing 0.2% BSA and 100 μM bacitracin. Nonspecific binding was defined as binding in the presence of 100 nM ET-1.

Data set [2] deals with T2, recombinant human ETBR (HETB) (Homo sapiens, UniProt P24530).
T2 construct: expressed in transfected cells; host or cells: CHOKI (CHO-K1) cells (membrane preparation)
T2 sequence (P24530 27-442): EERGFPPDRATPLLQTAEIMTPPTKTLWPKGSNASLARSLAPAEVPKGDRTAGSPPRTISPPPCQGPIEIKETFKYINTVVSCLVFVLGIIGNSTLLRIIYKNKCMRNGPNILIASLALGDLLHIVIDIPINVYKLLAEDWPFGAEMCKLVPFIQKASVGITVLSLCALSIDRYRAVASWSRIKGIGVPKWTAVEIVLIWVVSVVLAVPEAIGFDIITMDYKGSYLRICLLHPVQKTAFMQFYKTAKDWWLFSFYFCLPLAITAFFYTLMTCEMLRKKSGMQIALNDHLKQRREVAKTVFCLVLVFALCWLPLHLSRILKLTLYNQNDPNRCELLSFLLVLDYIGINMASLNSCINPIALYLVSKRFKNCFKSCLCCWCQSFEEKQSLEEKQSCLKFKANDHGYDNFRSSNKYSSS
Nature of the data set: Radioligand binding, [125I]ET-1 to membranes of CHOKI cells expressing recombinant human ETBR (HETB). As to conditions: [125I]ET-1 binding, human ETB, CHOKI cell membranes. On the procedure:
as §1, §2, §3

Data set [3] deals with ETA, rabbit femoral artery. Put plainly: Antagonism of ET-1 stimulated vasoconstriction (VERAA) in the rabbit femoral artery (ETA). The source says:
In Vitro Antagonism of ET-1 Stimulated Vasoconstriction (VERAA) in the Rabbit Femoral Arterv (ETA) and Sarafotoxin 6C Stimulated Vasoconstriction in the Rabbit Pulmonarv Artery (ETB)
Male New Zealand rabbits were killed by cervical dislocation and exsanguination. Femoral and pulmonary arteries were isolated, cleaned of connective tissue, and cut into 4mm rings. The endothelium was denuded by placing the rings over hypodermic tubing (32 gauge for femoral rings and 28 gauge for pulmonary rings, Small Parts, Inc., Miami, Fla.) and gently rolling them. Denuded rings were mounted in 20 mL organ baths containing Krebsbicarbonate buffer (composition in mM: NaCl, 118.2; NaHCO3, 24.8; KCl, 4.6; MgSO4 7H2O, 1.2; KH2PO4, 1.2; CaCl2 2H2O; CaNa2 EDTA, 0.026;, dextrose, 10.0), that was maintained at 37° C. and gassed continuously with 5% CO2 in oxygen (pH 7.4). Resting tension was adjusted to 3.0 g for femoral and 4.0 g pulmonary arteries; the rings were left for 90 minutes to equilibrate. Vascular rings were tested for lack of functional endothelium (ie, lack of an endotheliumdependent relaxation response to carbachol ([…]) in norepinephrine ([…]) contracted rings. Agonist peptides, ET-1 -(femoral), and S6c (pulmonary), were cumulatively added at 10-minute intervals. The ET antagonists were added 30 minutes prior to adding the agonist.

In data set [4] the test system is ETA receptor, human pulmonary artery smooth muscle cells. Nature of the data set: Blocking ET-1 induced Ca++ transients in human pulmonary artery smooth muscle cells. Type of data set: cell-based. As to conditions: read-out: IC50 blocking ET-1 induced Ca++ transients via the ETA receptor.
The test system of data set [5] is bET-1 pressor response. Put plainly: Inhibition of bET-1 induced pressor effect in rat. The class given is in vivo. The settings on record: oral. On the procedure: Inhibition of bETI Induced Pressor Effect in Rat Male Sprague-Dawley (Charles River Laboratories, Kingston, Ontario, Canada) weighing 250 to 350 g are anesthetized (Inactin, 120 mg/kg, I.P.) and acutely instrumented with a carotid artery catheter to monitor arterial blood pressure and with a jugular vein catheters to administer intravenous drugs. Once instrumented, the rats are ganglionicblocked with mecamylamine (1.25 mg/kg, I.V.) to prevent hemodynamic reflexes and then challenged with big endothelin-1 (bET-1) (1.0 nmol/kg, I.V.). The peak arterial pressor response in rats pre-treated with selected compounds of invention compared to vehicletreated rats is used to determine activity expressed as % inhibition. For I.V. activity selected compounds of invention was dose 10 minutes before the bET-1 challenge, and for oral activity selected compounds of invention was administered via oral gavage 8 or 24 hours before the bET-1 challenge.

For data set [6], the system named is bET-1 pressor response. Nature of the data set: Inhibition of bET-1 pressor response in dog. Type of data set: in vivo. The settings on record: Canis lupus familiaris, oral, 24 hours postdose.
In data set [7] the test system is acute hypoxic pulmonary hypertension. Put plainly: Acute hypoxic pulmonary hypertension in the rat. Type of data set: in vivo. As to conditions: oral.
Data set [8] can be described thus: Pharmacokinetics in rat. As to conditions: in vivo.
A short description of data set [9]: Pharmacokinetics in dog. The settings on record: in vivo.

Take `CCc1cc(C2=C(C(=O)O)N(c3ccccc3C(F)(F)F)S(=O)(=O)c3ccccc32)cc2c1OCO2` [Example 10, 4-(7-Ethylbenzo[1,3]dioxol-5yl)-1,1 dioxo-2-(2-trifluoromethyl-phenyl) 1,2-dihydro1λ^6-benzo[e]11.2]thiazine-3-carboxylic acid, sodium salt]: the IC50 in data set [1] worked out at 0.6 nM; in data set [2], 2200 nM; in data set [4], 0.2 nM. In data set [3], the “pA2, antagonism to ET-1 stimulated vasoconstriction in rabbit femoral artery” value was found to be 7.7. In data set [3] (ET-1 stimulated vasoconstriction, rabbit femoral artery), the “VERAA (pA2)” value came out at 7.7. Besides, in data set [5] (10 mg/kg, 8 hours postdose), testing at 10 mg/kg gave an inhibition of 44%. This molecule returned an inhibition at 30 mg/kg in [5] (30 mg/kg, 24 hours postdose) of 48%. In data set [6], this molecule displayed an inhibition at 15 mg/kg of 25%. The ED50 in data set [7] (dose dependent, read-out: ED50, inhibition of acute hypoxic pulmonary hypertension) was found to be 0.8 mg/kg. In data set [7] (plasma concentration, read-out: plasma EC50, inhibition of acute hypoxic pulmonary hypertension), the EC50 came to 0.046 µg/mL. Also, the bioavailability was found to be 77% in data set [8] (oral) and 100% in data set [9] (oral). In addition, the half-life in data set [8] (read-out: terminal elimination t1/2 (converted)) was 8.5 h; in data set [9], 2.2 h.
